Data as given in paper PMC7265341, “Quantifying CDK inhibitor selectivity in live cells” (Nature Communications, 2020).
Read-outs that look alike come from different tables or passages of the source.

Tests used:
[1] = target: CDK11B/Cyclin L2 (Homo sapiens, UniProt P21127); experiment: NanoBRET live-cell target engagement, CDK11B-NanoLuc/Cyclin L2 in HEK-293; type: binding; conditions: CDK11b/L2
[2] = target: CDK17/Cyclin Y (Homo sapiens, UniProt Q00537); experiment: NanoBRET live-cell target engagement, CDK17-NanoLuc/Cyclin Y in HEK-293; type: binding; conditions: CDK17/Y; for IC50: read-out: IC50
[3] = target: CDK12/Cyclin K (Homo sapiens, UniProt Q9NYV4); experiment: NanoBRET live-cell target engagement, CDK12-NanoLuc/Cyclin K in HEK-293; type: binding; conditions: CDK12/K
[4] = target: CDK4/Cyclin D1 (Homo sapiens, UniProt P11802); experiment: NanoBRET live-cell target engagement, NanoLuc-CDK4/Cyclin D1 in HEK-293; type: binding; conditions: CDK4/D1; for IC50: read-out: IC50
[5] = target: CDK10/Cyclin L2 (Homo sapiens, UniProt Q15131); experiment: NanoBRET live-cell target engagement, CDK10-NanoLuc/Cyclin L2 in HEK-293; conditions: CDK10/L2
[6] = target: CDK19/Cyclin C (Homo sapiens, UniProt Q9BWU1); experiment: NanoBRET live-cell target engagement, NanoLuc-CDK19/Cyclin C in HEK-293
[7] = target: CDK20/Cyclin H (Homo sapiens, UniProt Q8IZL9); experiment: NanoBRET live-cell target engagement, NanoLuc-CDK20/Cyclin H in HEK-293; type: binding; conditions: CDK20/H
[8] = target: T1, CDK11A/Cyclin L2 (Homo sapiens, UniProt Q9UQ88); experiment: NanoBRET live-cell target engagement, CDK11A-NanoLuc/Cyclin L2 in HEK-293; type: binding; conditions: CDK11a/L2
T1 sequence (Q9UQ88 1-783): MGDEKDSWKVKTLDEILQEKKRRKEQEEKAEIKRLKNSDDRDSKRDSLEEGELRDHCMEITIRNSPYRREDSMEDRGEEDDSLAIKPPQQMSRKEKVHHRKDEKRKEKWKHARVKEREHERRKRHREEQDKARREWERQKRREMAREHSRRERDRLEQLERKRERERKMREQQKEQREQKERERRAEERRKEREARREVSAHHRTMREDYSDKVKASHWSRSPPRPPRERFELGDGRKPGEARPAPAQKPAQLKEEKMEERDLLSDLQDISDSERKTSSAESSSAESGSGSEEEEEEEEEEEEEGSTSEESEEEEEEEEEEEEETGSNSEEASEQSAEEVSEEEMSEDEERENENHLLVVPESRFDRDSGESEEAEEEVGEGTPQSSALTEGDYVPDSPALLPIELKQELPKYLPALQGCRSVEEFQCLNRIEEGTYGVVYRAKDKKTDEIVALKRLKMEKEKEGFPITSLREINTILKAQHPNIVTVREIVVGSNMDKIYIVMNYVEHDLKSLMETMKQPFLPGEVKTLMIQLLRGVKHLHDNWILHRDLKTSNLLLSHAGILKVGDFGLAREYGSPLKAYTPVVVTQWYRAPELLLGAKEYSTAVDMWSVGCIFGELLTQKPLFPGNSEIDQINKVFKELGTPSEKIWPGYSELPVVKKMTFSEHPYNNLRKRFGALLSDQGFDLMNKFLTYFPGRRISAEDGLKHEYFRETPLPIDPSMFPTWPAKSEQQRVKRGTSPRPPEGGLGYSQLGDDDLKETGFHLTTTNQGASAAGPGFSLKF

[9] = target: CDK16/Cyclin Y (Homo sapiens, UniProt Q00536); experiment: NanoBRET live-cell target engagement, CDK16-NanoLuc/Cyclin Y in HEK-293; type: binding; conditions: CDK16/Y; for IC50: read-out: IC50
[10] = target: CDK5/CDK5R1 (Homo sapiens, UniProt Q00535); experiment: NanoBRET live-cell target engagement, CDK5-NanoLuc/CDK5R1 in HEK-293; type: binding; conditions: CDK5/CDK5R1
[11] = target: CDK6/Cyclin D1 (Homo sapiens, UniProt Q00534); experiment: NanoBRET live-cell target engagement, NanoLuc-CDK6/Cyclin D1 in HEK-293; type: binding; conditions: CDK6/D1; for IC50: read-out: IC50
[12] = target: CDK15/Cyclin Y (Homo sapiens, UniProt Q96Q40); experiment: NanoBRET live-cell target engagement, NanoLuc-CDK15/Cyclin Y in HEK-293; type: binding; conditions: CDK15/Y; for IC50: read-out: IC50
[13] = target: CDK8/Cyclin C (Homo sapiens, UniProt P49336); experiment: NanoBRET live-cell target engagement, NanoLuc-CDK8/Cyclin C in HEK-293; type: binding; conditions: CDK8/C
[14] = target: CDK14/Cyclin Y (Homo sapiens, UniProt O94921); experiment: NanoBRET live-cell target engagement, CDK14-NanoLuc/Cyclin Y in HEK-293; type: binding; conditions: CDK14/Y; for IC50: read-out: IC50
[15] = target: CDK3/Cyclin E1 (Homo sapiens, UniProt Q00526); experiment: NanoBRET live-cell target engagement, CDK3-NanoLuc/Cyclin E1 in HEK-293; type: binding; conditions: CDK3/E1
[16] = target: CDK13/Cyclin K (Homo sapiens, UniProt Q14004); experiment: NanoBRET live-cell target engagement, CDK13-NanoLuc/Cyclin K in HEK-293; type: binding; conditions: CDK13/K
[17] = target: CDK18/Cyclin Y (Homo sapiens, UniProt Q07002); experiment: NanoBRET live-cell target engagement, CDK18-NanoLuc/Cyclin Y in HEK-293; type: binding; conditions: CDK18/Y

Sequence of CDK13/Cyclin K (O75909 whole entry): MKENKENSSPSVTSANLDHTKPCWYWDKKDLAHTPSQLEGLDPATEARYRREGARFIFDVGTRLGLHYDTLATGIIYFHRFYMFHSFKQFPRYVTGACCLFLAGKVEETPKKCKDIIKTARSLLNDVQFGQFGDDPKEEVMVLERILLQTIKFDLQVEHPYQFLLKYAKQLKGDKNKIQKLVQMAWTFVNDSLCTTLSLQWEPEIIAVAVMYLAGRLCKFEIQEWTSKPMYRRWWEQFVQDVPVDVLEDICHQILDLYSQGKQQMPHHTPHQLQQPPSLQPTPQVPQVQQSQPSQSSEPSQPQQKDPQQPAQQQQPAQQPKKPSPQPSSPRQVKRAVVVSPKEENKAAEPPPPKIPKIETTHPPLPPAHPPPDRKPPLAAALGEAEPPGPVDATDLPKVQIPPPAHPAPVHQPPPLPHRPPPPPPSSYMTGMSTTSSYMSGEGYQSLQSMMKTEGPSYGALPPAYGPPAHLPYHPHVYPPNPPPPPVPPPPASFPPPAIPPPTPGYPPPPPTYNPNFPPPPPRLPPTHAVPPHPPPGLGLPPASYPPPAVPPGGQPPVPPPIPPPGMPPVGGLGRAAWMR
Sequence of CDK13/Cyclin K (Q14004 other isoform, or with tags, fused parts or gaps): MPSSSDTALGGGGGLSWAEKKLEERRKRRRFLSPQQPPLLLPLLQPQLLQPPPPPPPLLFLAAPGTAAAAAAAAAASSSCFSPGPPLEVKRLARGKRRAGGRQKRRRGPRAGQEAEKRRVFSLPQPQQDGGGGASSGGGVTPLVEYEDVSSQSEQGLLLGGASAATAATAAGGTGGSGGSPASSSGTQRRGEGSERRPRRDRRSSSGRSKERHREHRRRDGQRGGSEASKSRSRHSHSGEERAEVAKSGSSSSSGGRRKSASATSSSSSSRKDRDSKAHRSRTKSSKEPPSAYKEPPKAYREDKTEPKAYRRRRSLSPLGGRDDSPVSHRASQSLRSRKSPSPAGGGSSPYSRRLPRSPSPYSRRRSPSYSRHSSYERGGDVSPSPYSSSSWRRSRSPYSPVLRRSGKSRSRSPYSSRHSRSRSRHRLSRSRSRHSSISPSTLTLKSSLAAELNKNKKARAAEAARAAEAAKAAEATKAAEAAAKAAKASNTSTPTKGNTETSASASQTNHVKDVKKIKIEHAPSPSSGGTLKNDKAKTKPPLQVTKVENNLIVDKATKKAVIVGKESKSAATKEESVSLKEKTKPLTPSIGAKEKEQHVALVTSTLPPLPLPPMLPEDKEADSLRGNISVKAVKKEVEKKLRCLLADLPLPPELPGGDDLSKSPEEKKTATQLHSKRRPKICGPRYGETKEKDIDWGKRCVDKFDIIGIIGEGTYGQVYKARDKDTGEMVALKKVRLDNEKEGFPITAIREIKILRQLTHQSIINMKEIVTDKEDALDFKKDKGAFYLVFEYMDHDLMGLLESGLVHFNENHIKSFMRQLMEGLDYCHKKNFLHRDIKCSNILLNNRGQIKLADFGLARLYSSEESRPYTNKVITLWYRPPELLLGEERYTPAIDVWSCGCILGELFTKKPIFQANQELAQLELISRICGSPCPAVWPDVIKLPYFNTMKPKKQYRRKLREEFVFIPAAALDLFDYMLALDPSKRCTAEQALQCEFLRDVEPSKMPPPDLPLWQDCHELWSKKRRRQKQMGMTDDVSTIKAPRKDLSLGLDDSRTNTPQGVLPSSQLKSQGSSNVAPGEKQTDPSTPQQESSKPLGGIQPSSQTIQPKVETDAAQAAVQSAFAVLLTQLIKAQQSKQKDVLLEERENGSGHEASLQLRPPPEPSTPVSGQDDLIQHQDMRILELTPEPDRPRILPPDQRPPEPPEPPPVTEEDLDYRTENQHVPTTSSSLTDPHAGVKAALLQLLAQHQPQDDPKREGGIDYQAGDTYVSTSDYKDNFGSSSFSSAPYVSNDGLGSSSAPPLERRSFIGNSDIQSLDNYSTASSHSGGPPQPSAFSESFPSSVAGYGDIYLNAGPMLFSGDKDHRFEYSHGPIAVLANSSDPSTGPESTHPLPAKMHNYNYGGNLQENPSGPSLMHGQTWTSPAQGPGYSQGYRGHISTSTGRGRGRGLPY
Sequence of CDK8/Cyclin C (P49336 whole entry): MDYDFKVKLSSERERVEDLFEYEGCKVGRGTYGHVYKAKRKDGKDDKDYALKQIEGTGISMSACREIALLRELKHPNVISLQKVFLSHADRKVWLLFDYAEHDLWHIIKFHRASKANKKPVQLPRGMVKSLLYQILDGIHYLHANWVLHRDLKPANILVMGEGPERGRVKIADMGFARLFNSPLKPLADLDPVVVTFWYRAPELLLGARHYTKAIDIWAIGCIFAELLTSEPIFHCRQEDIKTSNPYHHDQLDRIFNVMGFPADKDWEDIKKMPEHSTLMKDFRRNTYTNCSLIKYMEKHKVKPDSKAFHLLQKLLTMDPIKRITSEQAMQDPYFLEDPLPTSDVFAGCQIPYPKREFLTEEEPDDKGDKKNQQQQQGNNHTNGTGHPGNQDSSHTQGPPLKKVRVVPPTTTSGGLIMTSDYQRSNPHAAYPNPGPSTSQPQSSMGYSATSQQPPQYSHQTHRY
Sequence of CDK8/Cyclin C (P24863 whole entry partner): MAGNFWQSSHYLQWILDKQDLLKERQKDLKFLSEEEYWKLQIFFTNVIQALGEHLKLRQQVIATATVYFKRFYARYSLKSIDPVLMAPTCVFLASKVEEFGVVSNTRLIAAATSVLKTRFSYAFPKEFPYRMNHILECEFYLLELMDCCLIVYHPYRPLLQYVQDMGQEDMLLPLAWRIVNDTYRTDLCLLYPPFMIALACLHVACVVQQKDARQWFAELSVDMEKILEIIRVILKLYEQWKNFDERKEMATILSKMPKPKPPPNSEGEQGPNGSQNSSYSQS
Sequence of CDK5/CDK5R1 (Q00535 whole entry): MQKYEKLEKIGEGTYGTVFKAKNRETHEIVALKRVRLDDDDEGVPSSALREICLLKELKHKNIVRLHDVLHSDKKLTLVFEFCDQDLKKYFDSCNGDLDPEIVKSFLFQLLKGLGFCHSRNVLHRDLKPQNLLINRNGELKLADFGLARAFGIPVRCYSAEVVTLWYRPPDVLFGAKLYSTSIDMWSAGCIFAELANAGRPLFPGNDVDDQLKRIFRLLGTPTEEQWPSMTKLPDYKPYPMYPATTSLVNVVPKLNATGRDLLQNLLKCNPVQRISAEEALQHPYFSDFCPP
Sequence of CDK5/CDK5R1 (Q15078 whole entry partner): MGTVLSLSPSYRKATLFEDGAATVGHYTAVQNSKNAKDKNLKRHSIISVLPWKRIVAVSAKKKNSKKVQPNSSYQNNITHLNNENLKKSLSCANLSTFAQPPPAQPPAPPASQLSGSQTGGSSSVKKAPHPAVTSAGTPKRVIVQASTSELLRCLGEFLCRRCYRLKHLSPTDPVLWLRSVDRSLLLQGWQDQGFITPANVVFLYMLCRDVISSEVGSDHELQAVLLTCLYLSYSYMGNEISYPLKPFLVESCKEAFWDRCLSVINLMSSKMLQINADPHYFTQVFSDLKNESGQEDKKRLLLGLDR
Sequence of CDK12/Cyclin K (Q9NYV4 1-1481 isoform Q9NYV4-2): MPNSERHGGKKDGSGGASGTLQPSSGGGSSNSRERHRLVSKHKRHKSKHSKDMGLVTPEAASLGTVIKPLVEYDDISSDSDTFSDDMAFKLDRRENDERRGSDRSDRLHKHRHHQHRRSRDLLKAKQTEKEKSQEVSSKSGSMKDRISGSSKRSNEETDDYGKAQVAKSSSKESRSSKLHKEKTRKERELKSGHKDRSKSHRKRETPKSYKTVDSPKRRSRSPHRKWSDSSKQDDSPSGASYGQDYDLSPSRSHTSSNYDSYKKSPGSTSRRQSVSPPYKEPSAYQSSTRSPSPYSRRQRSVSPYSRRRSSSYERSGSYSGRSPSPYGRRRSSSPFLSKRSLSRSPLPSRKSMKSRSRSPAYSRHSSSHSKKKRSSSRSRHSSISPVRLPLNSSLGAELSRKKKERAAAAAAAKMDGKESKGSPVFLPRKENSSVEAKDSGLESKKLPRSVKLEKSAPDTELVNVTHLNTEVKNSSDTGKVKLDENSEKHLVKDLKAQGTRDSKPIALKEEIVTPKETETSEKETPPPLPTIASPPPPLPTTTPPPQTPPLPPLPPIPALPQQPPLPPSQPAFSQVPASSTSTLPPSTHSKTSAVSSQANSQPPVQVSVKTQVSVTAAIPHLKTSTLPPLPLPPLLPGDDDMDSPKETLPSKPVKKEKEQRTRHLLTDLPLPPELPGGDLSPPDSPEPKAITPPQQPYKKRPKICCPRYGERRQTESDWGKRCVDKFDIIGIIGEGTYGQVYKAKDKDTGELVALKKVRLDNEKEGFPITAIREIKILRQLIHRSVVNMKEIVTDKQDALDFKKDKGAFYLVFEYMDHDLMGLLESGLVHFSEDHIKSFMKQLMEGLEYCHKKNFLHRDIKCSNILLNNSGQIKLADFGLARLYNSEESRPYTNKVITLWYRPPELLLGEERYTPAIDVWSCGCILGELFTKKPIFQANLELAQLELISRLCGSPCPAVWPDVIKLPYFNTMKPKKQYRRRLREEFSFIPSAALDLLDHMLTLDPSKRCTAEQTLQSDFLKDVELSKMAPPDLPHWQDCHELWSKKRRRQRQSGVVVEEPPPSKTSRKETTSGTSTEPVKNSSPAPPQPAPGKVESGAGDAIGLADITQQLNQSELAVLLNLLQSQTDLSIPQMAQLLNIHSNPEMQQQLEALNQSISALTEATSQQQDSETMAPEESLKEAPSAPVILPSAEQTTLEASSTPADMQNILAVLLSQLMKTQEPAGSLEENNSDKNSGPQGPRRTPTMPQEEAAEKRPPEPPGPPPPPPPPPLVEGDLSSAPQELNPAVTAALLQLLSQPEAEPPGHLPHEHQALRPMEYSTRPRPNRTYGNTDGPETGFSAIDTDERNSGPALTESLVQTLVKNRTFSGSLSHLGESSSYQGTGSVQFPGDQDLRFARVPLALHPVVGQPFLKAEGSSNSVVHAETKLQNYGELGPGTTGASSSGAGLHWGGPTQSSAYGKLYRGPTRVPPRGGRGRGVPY
Sequence of CDK12/Cyclin K (O75909 whole entry partner): as the sequence (O75909 whole entry) above

With `CNc1nc(C)c(-c2nc(Nc3cccc(S(N)(=O)=O)c3)ncc2F)s1` [CDKI-73] as the compound, how does the “Inhibition at 10µM (%)” value ([1]; average) read?
The value was 50.2%.

And the “Inhibition at 10µM (%)” value ([1]; experiment 1)?
Its value is 41.6%.

And the “Inhibition at 10µM (%)” value ([1]; experiment 2)?
The value was 58.7%.

And the “Inhibition at 10µM (%)” value ([2]; average)?
Its value is 92.2%.

What about the IC50 ([2]; average (± SEM where n=3)) of the same compound?
Its IC50 is 8.3 nM.

And the “Inhibition at 10µM (%)” value ([2]; experiment 1)?
Its value is 92.4%.

What about the IC50 ([2]; experiment 1) of the same compound?
Its IC50 is 7.8 nM.

What about the “Inhibition at 10µM (%)” value ([2]; experiment 2) of the same compound?
Its value is 92.0%.

What about the IC50 ([2]; experiment 2) of the same compound?
Its IC50 is 8.8 nM.

And the “Inhibition at 10µM (%)” value ([3]; average)?
Its value is 42.5%.

What about the “Inhibition at 10µM (%)” value ([3]; experiment 1) of the same compound?
The value was 31.7%.

And the “Inhibition at 10µM (%)” value ([3]; experiment 2)?
The value was 53.2%.

What about the “Inhibition at 10µM (%)” value ([4]; average) of the same compound?
Its value is 93.8%.

What about the IC50 ([4]; average (± SEM where n=3)) of the same compound?
Its IC50 is 12 nM.

What about the “Inhibition at 10µM (%)” value ([4]; experiment 1) of the same compound?
The value was 99.0%.

What about the IC50 ([4]; experiment 1) of the same compound?
The IC50 was 13 nM.

And the “Inhibition at 10µM (%)” value ([4]; experiment 2)?
Its value is 88.5%.

What about the IC50 ([4]; experiment 2) of the same compound?
The IC50 was 11 nM.

What about the “Inhibition at 10µM (%)” value ([5]; average) of the same compound?
Its value is 40.1%.

What about the “Inhibition at 10µM (%)” value ([5]; experiment 1) of the same compound?
The value was 36.9%.

What about the “Inhibition at 10µM (%)” value ([5]; experiment 2) of the same compound?
The value was 43.3%.

What about the “Inhibition at 10µM (%)” value ([6]; CDK19/C, average) of the same compound?
Its value is 79.0%.

What about the IC50 ([6]; CDK19/C, experiment 1) of the same compound?
The IC50 was 507 nM.

And the “Inhibition at 10µM (%)” value ([6]; CDK19/C, experiment 1)?
The value was 76.8%.

And the IC50 ([6]; CDK19/C, experiment 2)?
The IC50 was 120 nM.

And the “Inhibition at 10µM (%)” value ([6]; CDK19/C, experiment 2)?
Its value is 81.3%.

What about the IC50 ([6]; CDK19/Y (so in the source), average (± SEM where n=3)) of the same compound?
The IC50 was 310 nM.

What about the “Inhibition at 10µM (%)” value ([7]; experiment 1) of the same compound?
The value was 73.0%.

And the “Inhibition at 10µM (%)” value ([7]; experiment 2)?
The value was 44.8%.

What about the “Inhibition at 10µM (%)” value ([8]; average) of the same compound?
Its value is 42.8%.

What about the “Inhibition at 10µM (%)” value ([8]; experiment 1) of the same compound?
Its value is 32.6%.

And the “Inhibition at 10µM (%)” value ([8]; experiment 2)?
The value was 53.0%.

What about the IC50 ([9]; average (± SEM where n=3)) of the same compound?
Its IC50 is 4.1 nM.

What about the “Inhibition at 10µM (%)” value ([9]; experiment 1) of the same compound?
Its value is 92.7%.

What about the IC50 ([9]; experiment 1) of the same compound?
The IC50 was 3.2 nM.

And the “Inhibition at 10µM (%)” value ([9]; experiment 2)?
Its value is 92.0%.

And the IC50 ([9]; experiment 2)?
The IC50 was 4.9 nM.

And the “Inhibition at 10µM (%)” value ([10]; average)?
Its value is 90.6%.

What about the “Inhibition at 10µM (%)” value ([10]; experiment 1) of the same compound?
The value was 88.4%.

And the “Inhibition at 10µM (%)” value ([10]; experiment 2)?
The value was 92.7%.

And the “Inhibition at 10µM (%)” value ([11]; average)?
Its value is 99.1%.

And the IC50 ([11]; average (± SEM where n=3))?
Its IC50 is 14 nM.

What about the “Inhibition at 10µM (%)” value ([11]; experiment 1) of the same compound?
Its value is 98.8%.

What about the IC50 ([11]; experiment 1) of the same compound?
The IC50 was 22 nM.

And the “Inhibition at 10µM (%)” value ([11]; experiment 2)?
Its value is 99.3%.

What about the IC50 ([11]; experiment 2) of the same compound?
The IC50 was 6.6 nM.

And the “Inhibition at 10µM (%)” value ([12]; average)?
Its value is 92.4%.

And the IC50 ([12]; average (± SEM where n=3))?
The IC50 was 80 nM.

And the “Inhibition at 10µM (%)” value ([12]; experiment 1)?
The value was 92.6%.

What about the IC50 ([12]; experiment 1) of the same compound?
Its IC50 is 107 nM.

And the “Inhibition at 10µM (%)” value ([12]; experiment 2)?
Its value is 92.2%.

What about the IC50 ([12]; experiment 2) of the same compound?
The IC50 was 54 nM.

And the “Inhibition at 10µM (%)” value ([13]; average)?
The value was 89.5%.

And the “Inhibition at 10µM (%)” value ([13]; experiment 1)?
Its value is 81.5%.

And the “Inhibition at 10µM (%)” value ([13]; experiment 2)?
The value was 97.4%.

What about the “Inhibition at 10µM (%)” value ([14]; average) of the same compound?
Its value is 92.7%.

And the IC50 ([14]; average (± SEM where n=3))?
Its IC50 is 48 nM.

What about the “Inhibition at 10µM (%)” value ([14]; experiment 1) of the same compound?
The value was 93.7%.

And the IC50 ([14]; experiment 1)?
Its IC50 is 59 nM.

And the “Inhibition at 10µM (%)” value ([14]; experiment 2)?
The value was 91.8%.

What about the IC50 ([14]; experiment 2) of the same compound?
Its IC50 is 37 nM.

And the “Inhibition at 10µM (%)” value ([15]; average)?
Its value is 97.0%.

And the “Inhibition at 10µM (%)” value ([15]; experiment 1)?
The value was 94.8%.

And the “Inhibition at 10µM (%)” value ([15]; experiment 2)?
Its value is 99.2%.

What about the “Inhibition at 10µM (%)” value ([16]; average) of the same compound?
Its value is 37.1%.

And the “Inhibition at 10µM (%)” value ([16]; experiment 1)?
The value was 35.9%.

And the “Inhibition at 10µM (%)” value ([16]; experiment 2)?
The value was 38.4%.

What about the “Inhibition at 10µM (%)” value ([17]; experiment 1) of the same compound?
The value was 95.5%.

What about the “Inhibition at 10µM (%)” value ([17]; experiment 2) of the same compound?
Its value is 102.2%.
